# According to US20200079765A1, “SUBSTITUTED HETEROARYL PYRROLONES AND SALTS THEREOF AND USE THEREOF AS HERBICIDAL ACTIVE SUBSTANCES” (Bayer CropScience Aktiengesellschaft, priority 2016, published 2020):
# How the values were obtained:
# Format in all cases: in vivo
# Abutilon theophrasti [1] = experiment: Post-emergence herbicidal action (Experimental Part 1, A); conditions: about 3 weeks after treatment, 100% = plants have died, 0% = like control plants
# Protocol: (§1) Seeds of monocotyledonous and dicotyledonous weeds and crop plants were placed in sandy loam in plastic or wood-fiber pots, covered with soil and cultivated in a greenhouse under controlled growth conditions. 2 to 3 weeks after sowing, the test plants were treated at the one-leaf stage. The compounds of the invention, formulated in the form of wettable powders (WP) or as emulsion concentrates (EC), were then sprayed onto the green parts of the plants as aqueous suspension or emulsion with addition of 0.5% additive at a water application rate of 600 l/ha (converted). After the test plants had been kept in the greenhouse under optimum growth conditions for about 3 weeks, the activity of the preparations was rated visually in comparison to untreated controls. For example, 100% activity=the plants have died, 0% activity=like control plants. Tables A1 to A14 below show the effects of selected compounds of the general formula (I) according to Tables I.1 to I.116 on various harmful plants and an application rate corresponding to 1280 g/ha or 320 g/ha, which were obtained by the experimental procedure mentioned above.
# Alopecurus myosuroides [2] = experiment: as above; conditions: application rate 320 g/ha, about 3 weeks after treatment, 100% = plants have died, 0% = like control plants
# Protocol: as §1
# Amaranthus retroflexus [3] = experiment: as above; conditions: about 3 weeks after treatment, 100% = plants have died, 0% = like control plants
# Protocol: as §1
# Echinochloa crus-galli [4] = experiment: as above; conditions: application rate 320 g/ha, about 3 weeks after treatment, 100% = plants have died, 0% = like control plants
# Protocol: as §1
# Ipomoea purpurea [5] = experiment: as above; conditions: rated visually after about 3 weeks
# Protocol: as §1
# Matricaria inodora [6] = experiment: as above; conditions: rated visually after about 3 weeks
# Protocol: as §1
# Polygonum convolvulus [7] = experiment: as above; conditions: rated visually after about 3 weeks
# Protocol: as §1
# Setaria viridis [8] = experiment: as above; conditions: about 3 weeks after treatment, 100% = plants have died, 0% = like control plants
# Protocol: as §1
# Stellaria media [9] = experiment: as above; conditions: rated visually after about 3 weeks
# Protocol: as §1
# Veronica persica = experiment: as above; conditions: about 3 weeks after treatment, 100% = plants have died, 0% = like control plants
# Protocol: as §1
# Viola tricolor [10] = experiment: as above; conditions: rated visually after about 3 weeks
# Protocol: as §1
# Abutilon theophrasti [11] = experiment: Pre-emergence herbicidal action (Experimental Part 1, B); conditions: scored visually after about 3 weeks
# Excerpt: (§2) Seeds of monocotyledonous and dicotyledonous weed plants and crop plants were placed in plastic or organic planting pots and covered with soil. The compounds of the invention, formulated in the form of wettable powders (WP) or as emulsion concentrates (EC), were then applied onto the surface of the covering soil as aqueous suspension or emulsion with addition of 0.5% additive at a water application rate of 600 l/ha (converted). After the treatment, the pots were placed in a greenhouse and kept under good growth conditions for the test plants. After about 3 weeks, the effect of the preparations was scored visually in comparison with untreated controls as percentages. For example, 100% activity=the plants have died, 0% activity=like control plants. Tables B1 to B14 below show the effects of selected compounds of the general formula (I) according to Tables I.1 to I.116 on various harmful plants and an application rate corresponding to 1280 g/ha or 320 g/ha, which were obtained by the experimental procedure mentioned above.
# Alopecurus myosuroides [12] = experiment: as above; conditions: scored visually after about 3 weeks
# Excerpt: as §2
# Amaranthus retroflexus [13] = experiment: as above; conditions: scored visually after about 3 weeks
# Excerpt: as §2
# Avena fatua = experiment: as above; conditions: scored visually after about 3 weeks
# Excerpt: as §2
# Echinochloa crus-galli [14] = experiment: as above; conditions: application rate 320 g/ha, scored visually after about 3 weeks
# Excerpt: as §2
# Ipomoea purpurea [15] = experiment: as above; conditions: application rate 320 g/ha, scored visually after about 3 weeks
# Excerpt: as §2
# Lolium rigidum = experiment: as above; conditions: application rate 1280 g/ha, scored visually after about 3 weeks
# Excerpt: as §2
# Matricaria inodora [16] = experiment: as above; conditions: scored visually after about 3 weeks
# Excerpt: as §2
# Polygonum convolvulus [17] = experiment: as above; conditions: scored visually after about 3 weeks
# Excerpt: as §2
# Setaria viridis [18] = experiment: as above; conditions: scored visually after about 3 weeks
# Excerpt: as §2
# Stellaria media [19] = experiment: as above; conditions: scored visually after about 3 weeks
# Excerpt: as §2
# Viola tricolor [20] = experiment: as above; conditions: scored visually after about 3 weeks
# Excerpt: as §2
smiles,measurement,setting,value
"CCOC(=O)OC1C(C)=CC(=O)N1c1cc(C(C)(C)C)on1 (centres unmarked) [I.11-162, 5-Ethoxycarbonyloxy-4-methyl-1-(5-tert-butyl-1,2-isoxazol-3-yl)-1,5-dihydro-2H-pyrrol-2-one]",herbicidal activity on Abutilon theophrasti (visual rating vs untreated controls),Abutilon theophrasti [1]; application rate 320 g/ha,100%
same,herbicidal activity on Alopecurus myosuroides (visual rating vs untreated controls),Alopecurus myosuroides [2],100%
same,herbicidal activity on Amaranthus retroflexus (visual rating vs untreated controls),Amaranthus retroflexus [3]; application rate 320 g/ha,100%
same,herbicidal activity on Echinochloa crus-galli (visual rating vs untreated controls),Echinochloa crus-galli [4],90%
same,"Ipomoea purpurea, herbicidal activity",Ipomoea purpurea [5]; application rate 320 g/ha,90%
same,"Matricaria inodora, herbicidal activity",Matricaria inodora [6]; application rate 320 g/ha,100%
same,"Polygonum convolvulus, herbicidal activity",Polygonum convolvulus [7]; application rate 320 g/ha,100%
same,herbicidal activity on Setaria viridis (visual rating vs untreated controls),Setaria viridis [8]; application rate 320 g/ha,100%
same,"Stellaria media, herbicidal activity",Stellaria media [9]; application rate 320 g/ha,100%
same,herbicidal activity on Veronica persica (visual rating vs untreated controls),Veronica persica; application rate 320 g/ha,100%
same,"Viola tricolor, herbicidal activity",Viola tricolor [10]; application rate 320 g/ha,100%
same,"Abutilon theophrasti, herbicidal activity",Abutilon theophrasti [11]; application rate 320 g/ha,100%
same,"Alopecurus myosuroides, herbicidal activity",Alopecurus myosuroides [12]; application rate 320 g/ha,100%
same,"Amaranthus retroflexus, herbicidal activity",Amaranthus retroflexus [13]; application rate 320 g/ha,100%
same,"Avena fatua, herbicidal activity",Avena fatua; application rate 320 g/ha,90%
same,"Echinochloa crus-galli, herbicidal activity",Echinochloa crus-galli [14],100%
same,"Ipomoea purpurea, herbicidal activity",Ipomoea purpurea [15],90%
same,"Lolium rigidum, herbicidal activity",Lolium rigidum,90%
same,"Matricaria inodora, herbicidal activity",Matricaria inodora [16]; application rate 320 g/ha,100%
same,"Polygonum convolvulus, herbicidal activity",Polygonum convolvulus [17]; application rate 320 g/ha,100%
same,"Setaria viridis, herbicidal activity",Setaria viridis [18]; application rate 320 g/ha,100%
same,"Stellaria media, herbicidal activity",Stellaria media [19]; application rate 320 g/ha,100%
same,"Viola tricolor, herbicidal activity",Viola tricolor [20]; application rate 320 g/ha,100%
CCOC(=O)OC1C=C(C)C(=O)N1c1cc(C(F)(F)F)c(Cl)cn1 (centres unmarked) [I.12-451],herbicidal activity on Abutilon theophrasti (visual rating vs untreated controls),Abutilon theophrasti [1]; application rate 320 g/ha,100%
same,herbicidal activity on Abutilon theophrasti (visual rating vs untreated controls),Abutilon theophrasti [1]; application rate 1280 g/ha,100%
same,herbicidal activity on Amaranthus retroflexus (visual rating vs untreated controls),Amaranthus retroflexus [3]; application rate 320 g/ha,100%
same,herbicidal activity on Amaranthus retroflexus (visual rating vs untreated controls),Amaranthus retroflexus [3]; application rate 1280 g/ha,100%
same,"Ipomoea purpurea, herbicidal activity",Ipomoea purpurea [5]; application rate 320 g/ha,100%
same,"Ipomoea purpurea, herbicidal activity",Ipomoea purpurea [5]; application rate 1280 g/ha,100%
same,"Matricaria inodora, herbicidal activity",Matricaria inodora [6]; application rate 320 g/ha,90%
same,"Matricaria inodora, herbicidal activity",Matricaria inodora [6]; application rate 1280 g/ha,100%
same,"Polygonum convolvulus, herbicidal activity",Polygonum convolvulus [7]; application rate 320 g/ha,100%
same,"Polygonum convolvulus, herbicidal activity",Polygonum convolvulus [7]; application rate 1280 g/ha,100%
same,herbicidal activity on Setaria viridis (visual rating vs untreated controls),Setaria viridis [8]; application rate 320 g/ha,100%
same,herbicidal activity on Setaria viridis (visual rating vs untreated controls),Setaria viridis [8]; application rate 1280 g/ha,100%
same,"Stellaria media, herbicidal activity",Stellaria media [9]; application rate 320 g/ha,100%
same,"Stellaria media, herbicidal activity",Stellaria media [9]; application rate 1280 g/ha,100%
same,herbicidal activity on Veronica persica (visual rating vs untreated controls),Veronica persica; application rate 1280 g/ha,100%
same,"Viola tricolor, herbicidal activity",Viola tricolor [10]; application rate 320 g/ha,100%
same,"Viola tricolor, herbicidal activity",Viola tricolor [10]; application rate 1280 g/ha,100%
same,"Abutilon theophrasti, herbicidal activity",Abutilon theophrasti [11]; application rate 1280 g/ha,100%
same,"Alopecurus myosuroides, herbicidal activity",Alopecurus myosuroides [12]; application rate 1280 g/ha,90%
same,"Amaranthus retroflexus, herbicidal activity",Amaranthus retroflexus [13]; application rate 320 g/ha,100%
same,"Amaranthus retroflexus, herbicidal activity",Amaranthus retroflexus [13]; application rate 1280 g/ha,100%
same,"Avena fatua, herbicidal activity",Avena fatua; application rate 1280 g/ha,90%
same,"Matricaria inodora, herbicidal activity",Matricaria inodora [16]; application rate 1280 g/ha,90%
same,"Polygonum convolvulus, herbicidal activity",Polygonum convolvulus [17]; application rate 1280 g/ha,100%
same,"Setaria viridis, herbicidal activity",Setaria viridis [18]; application rate 320 g/ha,90%
same,"Setaria viridis, herbicidal activity",Setaria viridis [18]; application rate 1280 g/ha,100%
same,"Stellaria media, herbicidal activity",Stellaria media [19]; application rate 320 g/ha,100%
same,"Stellaria media, herbicidal activity",Stellaria media [19]; application rate 1280 g/ha,100%
same,"Viola tricolor, herbicidal activity",Viola tricolor [20]; application rate 320 g/ha,100%
same,"Viola tricolor, herbicidal activity",Viola tricolor [20]; application rate 1280 g/ha,100%
